The values below come from the RepoRT retention time repository (doi:10.1016/j.scitotenv.2015.08.078).

Counter-ions that a name gives are not always drawn.

This series can be described thus: RP, Waters ACQUITY UPLC BEH C18, 100 × 2.1 mm, 1.7 µm, 0.3 mL/min, estimated dead time 0.73 min; A: water + 0.1% formic acid, pH 3; B: methanol + 0.1% formic acid, pH 3; gradient (min/%B) 0/10 14/90 16/90 18/10. Particulars: stereoisomer not certain.
With `CCCOC(=O)NCCCN(C)C` [Propamocarb], the LC retention time was 2.28 min.

For the compound `CC(C)(C)C(=O)C(Oc1ccc(Cl)cc1)n1cncn1` (stereo not given) [Triadimefon], the LC retention time is 10.6 min.

Consider `CC(C)OC(=O)C(C)N(C(=O)c1ccccc1)c1ccc(F)c(Cl)c1` (stereo not given) [Flamprop-isopropyl], for which the LC retention time is 11.7 min.

For `COC1CC(OC2C(C)OC(OC3C(C)=CCC4CC(CC5(C=CC(C)C(C6CCCCC6)O5)O4)OC(=O)C4C=C(C)C(O)C5OCC(=CC=CC3C)C45O)CC2OC)OC(C)C1O` (stereo not given) [Doramectine], the LC retention time was 15.7 min.

For `O=C(O)Cn1c(=O)sc2cccc(Cl)c21` [Benazolin], the LC retention time was 4.59 min.

With `CC1=C(C(=O)Nc2ccccc2)S(=O)(=O)CCO1` [Oxycarboxin], the LC retention time is 5.41 min.

Turning to `CCNc1nc(NC(C)C(C)C)nc(SC)n1` (stereo not given) [Dimethametryn], the LC retention time is 11.4 min.

For the compound `CC(C)(C)C(O)C(=Cc1ccc(Cl)cc1Cl)n1cncn1` (stereo not given) [Diniconazole], the LC retention time is 12.2 min.

With `CCC(C)C1OC2(CCC1C)CC1CC(CC=C(C)C(OC3CC(OC)C(OC4CC(OC)C(O)C(C)O4)C(C)O3)C(C)C=CC=C3COC4C(O)C(C)=CC(C(=O)O1)C34O)O2` (stereo not given) [Ivermectin], the LC retention time is 16.3 min.

Take `CCNc1nc(Cl)nc(NC(C)C)n1` [Atrazine]: the LC retention time is 9.34 min.

`CCC(C)Nc1c([N+](=O)[O-])cc(C(C)(C)C)cc1[N+](=O)[O-]` (stereo not given) [Butralin]: the LC retention time is 13.5 min.

As for `CCCCCc1cc(O)c2c(c1)OC(C)(C)C1CCC(C)=CC21` (stereo not given) [THC], the LC retention time is 15.2 min.

Regarding `CC1(C)C(C=C(Br)Br)C1C(=O)OC(C#N)c1cccc(Oc2ccccc2)c1` (stereo not given) [Deltamethrin], the LC retention time was 14 min.

For `CCOP(=O)(OCC)OC(=CCl)c1ccc(Cl)cc1Cl` [Chlorfenvinphos], the LC retention time is 12 min.

As to `COc1ccc(C(CN(C)C)C2(O)CCCCC2)cc1` (stereo not given) [Venlafaxine], the LC retention time is 7.23 min.

Take `CN(C)C(=O)Nc1ccc(-n2nc(C(C)(C)C)oc2=O)c(Cl)c1` [Dimefuron]: the LC retention time is 9.63 min.

Regarding `Nc1ccccc1O` [2-Aminophenol], the LC retention time was 1.44 min.

As to `CC(=NC#N)N(C)Cc1ccc(Cl)nc1` [Acetamiprid], the LC retention time is 4.99 min.

Turning to `CC1C(c2ccc(Cl)cc2)SC(=O)N1C(=O)NC1CCCCC1` (stereo not given) [Hexythiazox], the LC retention time was 14.2 min.

For the compound `CCCOC(=O)c1ccccc1C(=O)OCCC` [Dipropyl phthalate], the LC retention time was 11.1 min.

`O=C(NC(=O)c1c(F)cccc1F)Nc1ccc(OC(F)(F)C(F)OC(F)(F)F)c(Cl)c1` (stereo not given) [Novaluron]: the LC retention time was 12.6 min.

With `NC(=NN=Cc1ccc(Cl)cc1)NN=Cc1ccc(Cl)cc1` [Robenidine], the LC retention time was 10.9 min.

Consider `CC1(C)SC2C(NC(=O)Cc3ccccc3)C(=O)N2C1C(=O)O` (stereo not given) [Penicillin G], for which the LC retention time is 8.55 min.

For the compound `CCCS(=O)(=O)c1ccc2nc(NC(=O)OC)[nH]c2c1` [Albendazole sulfone], the LC retention time was 6.16 min.

In the case of `CCC1OC(=O)C(C)C(OC2CC(C)(OC)C(O)C(C)O2)C(C)C(OC2OC(C)CC(N(C)C)C2O)C(C)(O)CC(C)C(=O)C(C)C(O)C1(C)O` (stereo not given) [Erythromycin], the LC retention time was 9.41 min.

As for `CNC(=O)c1cc(Cl)cc(C)c1NC(=O)c1cc(Br)nn1-c1ncccc1Cl` [Chlorantraniliprole], the LC retention time was 10.4 min.

As for `CC(=O)OCC12CC(OC(=O)CC(C)C)C(C)=CC1OC1C(O)C(O)C2(C)C12CO2` (stereo not given) [HT-2 Toxin], the LC retention time is 7.95 min.

As to `Cc1ncc([N+](=O)[O-])n1CCO` [Metronidazole (MNZ)], the LC retention time was 5.38 min.

On to `CCC(=O)Nc1ccc(Cl)c(Cl)c1` [Propanil], for which the LC retention time was 10.3 min.

With `CC(C)N(Cc1ccccc1)C(=O)C(C)(C)C` [Tebutam], the LC retention time is 11.1 min.

On to `CCCC(=NOCC)C1C(=O)CC(CC(C)SCC)CC1=O` (stereo not given) [Sethoxydim], for which the LC retention time was 11.8 min.

Turning to `CNC(=O)Oc1cc(C)c(S(C)=O)c(C)c1` (stereo not given) [Methiocarb sulfoxide], the LC retention time was 4.6 min.

`O=C1CN=C(c2ccccc2)c2cc(Cl)ccc2N1` [Nordiazepam]: the LC retention time was 10.5 min.

`CC12CCC(=O)C=C1CCC1C2C(O)CC2(C)C(C(=O)CO)CCC12` (stereo not given) [Corticosterone]: the LC retention time was 9.37 min.

Turning to `CC(=O)Oc1ccc2c3c1OC1C(OC(C)=O)C=CC4C(C2)N(C)CCC341` (stereo not given) [Heroin], the LC retention time was 5.32 min.

As to `O=C(Nc1ccccc1)N(Cc1ccc(Cl)cc1)C1CCCC1` [Pencycuron], the LC retention time is 12.2 min.

For the compound `O=C(NC(=O)c1c(F)cccc1F)Nc1ccc(Cl)cc1` [Diflubenzuron], the LC retention time was 11.2 min.

Consider `CC(Oc1ccc(Oc2ncc(C(F)(F)F)cc2Cl)cc1)C(=O)O` (stereo not given) [Haloxyfop], for which the LC retention time was 11.8 min.

In the case of `CC(C)=NOCCOC(=O)C(C)Oc1ccc(Oc2cnc3cc(Cl)ccc3n2)cc1` (stereo not given) [Propaquizafop], the LC retention time is 12.9 min.

Regarding `CNC(=O)CSP(=O)(OC)OC` [Omethoate], the LC retention time was 2.5 min.

In the case of `CCOP(=S)(OCC)Oc1ccc(=O)n(-c2ccccc2)n1` [Pyridaphenthion], the LC retention time is 12.1 min.

Consider `CCCCC(C)C(OC(=O)CC(CC(=O)O)C(=O)O)C(CC(C)CC(O)CCCCC(O)CC(O)C(C)N)OC(=O)CC(CC(=O)O)C(=O)O` (stereo not given) [Fumonisin B1], for which the LC retention time was 9.48 min.

Turning to `CCCCc1c(C)nc(NCC)nc1OS(=O)(=O)N(C)C` [Bupirimate], the LC retention time is 11.2 min.

Regarding `CCOP(=O)(SC(C)CC)SC(C)CC` (stereo not given) [Cadusafos], the LC retention time is 12.2 min.

For the compound `C=CCN(CC=C)C(=O)C(Cl)Cl` [Dichlormid], the LC retention time is 7.52 min.

In the case of `CC12CCC3C4CCC(=O)C=C4CCC3C1CCC2O` (stereo not drawn) [Nandrolone. beta-nortestosterone], the LC retention time was 10.6 min.

Turning to `COc1cc(OC)c(C(=O)CCCN2CCCC2)c(OC)c1` [Buflomedil HCl], the LC retention time was 5 min.

For the compound `COC=C(C(=O)OC)c1ccccc1Oc1cc(Oc2ccccc2C#N)ncn1` [Azoxystrobin], the LC retention time was 10.6 min.

For the compound `Cc1cccc2sc3nncn3c12` [Tricyclazole], the LC retention time was 6.05 min.

With `CC1CCCC(O)CCCCCc2cc(O)cc(O)c2C(=O)O1` (stereo not given) [Zeranol (Alfa Zearalanol. a-ZAL)], the LC retention time is 10.7 min.

Turning to `CNC(C)C(=O)c1ccccc1` (stereo not given) [Methcathinone], the LC retention time is 2.95 min.

Turning to `CCOC(=O)C(Cl)Cc1cc(-n2nc(C)n(C(F)F)c2=O)c(F)cc1Cl` (stereo not given) [Carfentrazone-ethyl], the LC retention time was 11.4 min.

With `COP(=O)(OC)Oc1ccc(S(C)=O)c(C)c1` (stereo not given) [Fenoxon sulfoxide], the LC retention time is 5.14 min.

Turning to `CC(C)OC(=O)C(C(=O)OC(C)C)=C1SCCS1` [Isoprothiolane], the LC retention time was 10.4 min.

Take `CCOC(=O)c1cn2nc(OP(=S)(OCC)OCC)cc2nc1C` [Pyrazophos]: the LC retention time was 11.9 min.

With `CCC1CCCC(OC2CCC(N(C)C)C(C)O2)C(C)C(=O)C2=CC3C(C=C(C)C4CC(OC5OC(C)C(OC)C(OC)C5OC)CC43)C2CC(=O)O1` (stereo not given) [Spinosyn D], the LC retention time was 12.5 min.

As to `CON(C)C(=O)Nc1ccc(Cl)cc1` [Monolinuron], the LC retention time is 8.07 min.

For `Nc1nc(N)nc(NC2CC2)n1` [Cyromazine], the LC retention time is 1.45 min.

As to `COCC(=O)N(c1c(C)cccc1C)N1CCOC1=O` [Oxadixyl], the LC retention time was 6.71 min.

Turning to `CN(C)c1nc(=O)n(C2CCCCC2)c(=O)n1C` [Hexazinone], the LC retention time is 7.56 min.

In the case of `COc1nc(C)nc(NC(=O)NS(=O)(=O)c2ccccc2OCCCl)n1` [Triasulfuron], the LC retention time is 6.67 min.

As to `COC(=O)C(C)Oc1ccc(Oc2ncc(C(F)(F)F)cc2Cl)cc1` (stereo not given) [Haloxyfop-methyl], the LC retention time is 12.6 min.

`COC(=O)C(C)N(C(=O)c1ccccc1)c1ccc(F)c(Cl)c1` (stereo not given) [Flamprop-methyl]: the LC retention time is 10.7 min.

As for `CCC(C)(C)NCC(O)c1cc(Cl)c(N)c(Cl)c1` (stereo not given) [Clenpenterol], the LC retention time is 6.19 min.

In the case of `NC(=O)NN=Cc1ccc([N+](=O)[O-])o1` [Nitrofurazone], the LC retention time was 2.99 min.

As to `Cc1nnc(NS(=O)(=O)c2ccc(N)cc2)s1` [Sulfamethiazole], the LC retention time was 3.19 min.

Regarding `OC(Cn1cncn1)(c1ccc(F)cc1)c1ccccc1F` (stereo not given) [Flutriafol], the LC retention time was 8.93 min.

Consider `CC#Cc1cc(C)nc(Nc2ccccc2)n1` [Mepanipyrim], for which the LC retention time is 10.7 min.

On to `COC1CC(OC2CC(C3OC(C)(O)C(C)CC3C)OC2C2(C)CCC(C3(C)CCC4(CC(O)C(C)C(C(C)C5OC(O)(CC(=O)O)C(C)C(OC)C5OC)O4)O3)O2)OC(C)C1OC` (stereo not given) [Maduramicine], for which the LC retention time is 15.7 min.

Take `CC1(C)SC2C(NC(=O)C(N)c3ccccc3)C(=O)N2C1C(=O)O` (stereo not given) [Ampicillin]: the LC retention time is 4.95 min.

For `CCOc1ccc2c(c1)C(C)=CC(C)(C)N2` [Ethoxyquin], the LC retention time was 9.64 min.

With `CC(=O)c1ccc2c(c1)N(CCCN(C)C)c1ccccc1S2` [Acepromazine], the LC retention time is 8.97 min.

Take `Cc1ccc(N=CN(C)C=Nc2ccc(C)cc2C)c(C)c1` [Amitraz]: the LC retention time is 13.9 min.

In the case of `CC=C(C(=CC)c1ccc(O)cc1)c1ccc(O)cc1` [Dienestrol], the LC retention time is 11.1 min.

Consider `CCC(=O)OC1(C(=O)CCl)C(C)CC2C3CCC4=CC(=O)C=CC4(C)C3(F)C(O)CC21C` (stereo not given) [Clobetasol propionate], for which the LC retention time was 11.4 min.
